Several values for one entry are separate records, joined by “and”; a condition that tells them apart may be missing. Identical values can stand only once.
Tests used:
[1] = system: BRAF
[2] = molecular target: CDK4/cyclin D3 (Homo sapiens, UniProt P11802); conditions: 1 μM; Run 1, Run 2
[3] = molecular target: CDK5/P25 (Homo sapiens, UniProt Q00535); conditions: 1 μM; Run 1, Run 2
[4] = molecular target: DMPK2 (Homo sapiens, UniProt Q6DT37); conditions: 1 μM; Run 1, Run 2
[5] = molecular target: FGFR4 (Homo sapiens, UniProt P22455); conditions: 1 μM; Run 1, Run 2
[6] = molecular target: MLK1/MAP3K9 (Homo sapiens, UniProt P80192); conditions: 1 μM; Run 1, Run 2
[7] = molecular target: PKN2/PRK2 (Homo sapiens, UniProt Q16513); conditions: 1 μM; Run 1, Run 2
[8] = molecular target: T1, TSSK2 (Homo sapiens, UniProt Q96PF2); conditions: 1 μM; Run 1, Run 2
T1 sequence (Q96PF2 1-358): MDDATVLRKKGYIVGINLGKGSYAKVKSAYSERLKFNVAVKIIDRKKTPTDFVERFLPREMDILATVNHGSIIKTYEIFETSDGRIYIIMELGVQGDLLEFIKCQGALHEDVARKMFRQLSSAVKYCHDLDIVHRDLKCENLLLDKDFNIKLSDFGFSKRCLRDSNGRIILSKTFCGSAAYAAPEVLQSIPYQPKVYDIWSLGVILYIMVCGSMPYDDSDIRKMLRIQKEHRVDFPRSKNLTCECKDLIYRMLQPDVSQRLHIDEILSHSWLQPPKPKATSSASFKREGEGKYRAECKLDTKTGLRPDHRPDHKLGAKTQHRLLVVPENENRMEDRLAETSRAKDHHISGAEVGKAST

[9] = molecular target: ABL2/ARG (Homo sapiens, UniProt P42684); assay: biochemical; conditions: read-out: % enzyme activity, 1 μM; Run 1, Run 2
[10] = molecular target: CK2a2 (Homo sapiens, UniProt P19784); assay: biochemical; conditions: read-out: % enzyme activity, 1 μM; Run 1, Run 2
[11] = molecular target: ERBB2/HER2 (Homo sapiens, UniProt P04626); assay: biochemical; conditions: read-out: % enzyme activity, 1 μM; Run 1, Run 2
[12] = molecular target: P38b/MAPK11 (Homo sapiens, UniProt Q15759); assay: biochemical; conditions: read-out: % enzyme activity, 1 μM; Run 1, Run 2
[13] = molecular target: PIM3 (Homo sapiens, UniProt Q86V86); assay: biochemical; conditions: read-out: % enzyme activity, 1 μM; Run 1, Run 2
[14] = molecular target: PKAcg (Homo sapiens, UniProt P22612); assay: biochemical; conditions: read-out: % enzyme activity, 1 μM; Run 1, Run 2
[15] = molecular target: T2, PKCmu/PRKD1 (Homo sapiens, UniProt Q15139); assay: biochemical; conditions: read-out: % enzyme activity, 1 μM; Run 1, Run 2
T2 sequence (Q15139 1-912): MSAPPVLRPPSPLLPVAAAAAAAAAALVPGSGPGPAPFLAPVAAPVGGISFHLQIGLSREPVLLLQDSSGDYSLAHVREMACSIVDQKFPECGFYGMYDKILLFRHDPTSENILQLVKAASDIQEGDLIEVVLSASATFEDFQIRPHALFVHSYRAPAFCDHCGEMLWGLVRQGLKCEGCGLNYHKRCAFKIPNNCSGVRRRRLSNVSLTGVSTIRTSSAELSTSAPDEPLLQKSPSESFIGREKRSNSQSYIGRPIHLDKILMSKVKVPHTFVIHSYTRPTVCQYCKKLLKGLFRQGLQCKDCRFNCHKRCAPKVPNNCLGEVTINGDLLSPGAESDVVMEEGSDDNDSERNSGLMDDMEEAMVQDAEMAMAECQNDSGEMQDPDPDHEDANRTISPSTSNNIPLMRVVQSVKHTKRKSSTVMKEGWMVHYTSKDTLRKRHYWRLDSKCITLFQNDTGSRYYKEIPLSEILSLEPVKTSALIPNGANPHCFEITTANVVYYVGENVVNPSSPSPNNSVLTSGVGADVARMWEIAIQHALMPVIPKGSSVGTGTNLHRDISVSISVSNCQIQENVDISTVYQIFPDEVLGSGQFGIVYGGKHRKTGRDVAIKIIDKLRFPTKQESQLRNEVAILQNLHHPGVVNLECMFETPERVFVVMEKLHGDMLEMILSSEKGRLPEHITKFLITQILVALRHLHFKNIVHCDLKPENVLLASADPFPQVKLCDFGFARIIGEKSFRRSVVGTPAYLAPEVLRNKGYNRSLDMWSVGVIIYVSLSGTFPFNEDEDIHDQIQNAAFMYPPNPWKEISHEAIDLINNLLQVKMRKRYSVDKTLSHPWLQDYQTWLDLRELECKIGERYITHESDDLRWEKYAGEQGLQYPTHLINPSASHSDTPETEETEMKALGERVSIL

[16] = molecular target: T3, SGK1 (Homo sapiens, UniProt O00141); assay: biochemical; conditions: read-out: % enzyme activity, 1 μM; Run 1, Run 2
T3 sequence (O00141 1-431): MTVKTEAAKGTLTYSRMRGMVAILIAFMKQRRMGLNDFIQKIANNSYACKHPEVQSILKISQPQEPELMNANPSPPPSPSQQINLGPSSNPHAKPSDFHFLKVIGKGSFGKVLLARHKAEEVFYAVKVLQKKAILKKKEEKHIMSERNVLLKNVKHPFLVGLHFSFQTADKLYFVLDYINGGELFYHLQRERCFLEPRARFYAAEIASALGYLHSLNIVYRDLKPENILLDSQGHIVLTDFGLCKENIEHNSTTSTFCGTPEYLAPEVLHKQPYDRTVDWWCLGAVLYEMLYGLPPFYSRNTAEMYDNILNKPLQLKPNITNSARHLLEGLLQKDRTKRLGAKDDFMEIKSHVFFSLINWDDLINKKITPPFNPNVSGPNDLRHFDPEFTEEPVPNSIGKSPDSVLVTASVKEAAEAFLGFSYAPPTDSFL

[17] = molecular target: STK38/NDR1 (Homo sapiens, UniProt Q15208); assay: biochemical; conditions: read-out: % enzyme activity, 1 μM; Run 1, Run 2
[18] = molecular target: TLK2 (Homo sapiens, UniProt Q86UE8); assay: biochemical; conditions: read-out: % enzyme activity, 1 μM; Run 1, Run 2
[19] = molecular target: TRKC (Homo sapiens, UniProt Q16288); assay: biochemical; conditions: read-out: % enzyme activity, 1 μM; Run 1, Run 2
Chain of TRKC (Q16288 32-839): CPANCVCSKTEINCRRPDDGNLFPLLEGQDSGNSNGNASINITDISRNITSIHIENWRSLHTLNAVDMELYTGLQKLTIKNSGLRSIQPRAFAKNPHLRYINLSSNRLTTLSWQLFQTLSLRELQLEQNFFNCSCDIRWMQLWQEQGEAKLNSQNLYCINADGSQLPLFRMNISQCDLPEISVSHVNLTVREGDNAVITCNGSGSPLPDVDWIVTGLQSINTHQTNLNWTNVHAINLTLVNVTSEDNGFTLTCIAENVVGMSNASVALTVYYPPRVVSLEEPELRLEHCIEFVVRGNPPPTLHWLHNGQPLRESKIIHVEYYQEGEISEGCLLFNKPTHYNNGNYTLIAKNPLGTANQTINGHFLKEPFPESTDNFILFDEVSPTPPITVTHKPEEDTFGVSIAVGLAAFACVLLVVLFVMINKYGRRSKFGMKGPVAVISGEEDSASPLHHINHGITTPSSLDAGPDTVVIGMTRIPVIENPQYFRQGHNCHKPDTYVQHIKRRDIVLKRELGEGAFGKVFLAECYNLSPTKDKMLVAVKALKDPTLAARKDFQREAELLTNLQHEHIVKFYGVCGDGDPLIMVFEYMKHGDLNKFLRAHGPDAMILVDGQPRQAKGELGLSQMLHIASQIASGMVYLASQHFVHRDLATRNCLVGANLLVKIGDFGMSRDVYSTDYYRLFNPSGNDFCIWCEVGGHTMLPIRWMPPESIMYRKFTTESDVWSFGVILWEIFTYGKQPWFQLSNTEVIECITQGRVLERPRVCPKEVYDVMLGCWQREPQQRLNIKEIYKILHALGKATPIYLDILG

Chain of CDK4/cyclin D3 (P11802 whole entry): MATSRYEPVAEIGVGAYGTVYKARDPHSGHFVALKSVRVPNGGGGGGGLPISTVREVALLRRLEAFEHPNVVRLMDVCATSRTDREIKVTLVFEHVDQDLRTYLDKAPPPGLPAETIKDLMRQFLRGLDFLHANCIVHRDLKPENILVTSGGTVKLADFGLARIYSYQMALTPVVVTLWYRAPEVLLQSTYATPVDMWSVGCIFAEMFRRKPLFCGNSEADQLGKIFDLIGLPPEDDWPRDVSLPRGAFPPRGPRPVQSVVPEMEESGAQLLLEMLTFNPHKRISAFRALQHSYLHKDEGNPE
Chain of CDK4/cyclin D3 (P30281 whole entry partner): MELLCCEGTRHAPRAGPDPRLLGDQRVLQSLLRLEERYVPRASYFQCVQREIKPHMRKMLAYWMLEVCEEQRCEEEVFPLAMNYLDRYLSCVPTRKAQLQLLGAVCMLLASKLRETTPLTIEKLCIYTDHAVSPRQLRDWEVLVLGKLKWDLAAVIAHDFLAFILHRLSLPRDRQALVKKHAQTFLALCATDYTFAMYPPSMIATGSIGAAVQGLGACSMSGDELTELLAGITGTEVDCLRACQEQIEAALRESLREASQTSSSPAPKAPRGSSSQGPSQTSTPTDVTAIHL
Chain of CDK5/P25 (Q00535 whole entry): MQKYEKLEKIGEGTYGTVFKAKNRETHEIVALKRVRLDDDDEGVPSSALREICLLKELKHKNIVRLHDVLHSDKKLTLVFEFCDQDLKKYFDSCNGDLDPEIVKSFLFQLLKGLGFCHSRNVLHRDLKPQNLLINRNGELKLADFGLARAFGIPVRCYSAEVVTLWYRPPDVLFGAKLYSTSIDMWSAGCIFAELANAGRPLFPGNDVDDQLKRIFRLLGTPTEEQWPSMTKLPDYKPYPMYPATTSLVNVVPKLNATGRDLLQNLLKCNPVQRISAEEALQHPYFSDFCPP
Chain of CDK5/P25 (Q15078 99-307 partner limits assumed): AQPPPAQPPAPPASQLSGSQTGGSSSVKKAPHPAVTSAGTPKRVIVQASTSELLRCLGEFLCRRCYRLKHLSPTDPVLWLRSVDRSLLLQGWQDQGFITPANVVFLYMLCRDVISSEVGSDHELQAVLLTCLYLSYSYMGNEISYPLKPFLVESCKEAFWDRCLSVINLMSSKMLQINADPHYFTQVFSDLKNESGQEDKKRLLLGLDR
Chain of PKAcg (P22612 whole entry): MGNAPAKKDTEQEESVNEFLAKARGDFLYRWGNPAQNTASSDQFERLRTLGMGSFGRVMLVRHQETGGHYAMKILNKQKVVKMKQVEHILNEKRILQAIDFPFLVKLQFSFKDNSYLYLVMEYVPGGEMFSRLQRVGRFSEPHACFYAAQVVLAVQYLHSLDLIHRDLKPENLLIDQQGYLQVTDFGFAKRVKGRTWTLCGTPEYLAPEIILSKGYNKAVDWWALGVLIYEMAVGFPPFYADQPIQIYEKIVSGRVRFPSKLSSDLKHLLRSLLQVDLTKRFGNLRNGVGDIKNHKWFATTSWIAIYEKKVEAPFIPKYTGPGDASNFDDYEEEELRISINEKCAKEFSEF
Chain of TLK2 (Q86UE8 whole entry): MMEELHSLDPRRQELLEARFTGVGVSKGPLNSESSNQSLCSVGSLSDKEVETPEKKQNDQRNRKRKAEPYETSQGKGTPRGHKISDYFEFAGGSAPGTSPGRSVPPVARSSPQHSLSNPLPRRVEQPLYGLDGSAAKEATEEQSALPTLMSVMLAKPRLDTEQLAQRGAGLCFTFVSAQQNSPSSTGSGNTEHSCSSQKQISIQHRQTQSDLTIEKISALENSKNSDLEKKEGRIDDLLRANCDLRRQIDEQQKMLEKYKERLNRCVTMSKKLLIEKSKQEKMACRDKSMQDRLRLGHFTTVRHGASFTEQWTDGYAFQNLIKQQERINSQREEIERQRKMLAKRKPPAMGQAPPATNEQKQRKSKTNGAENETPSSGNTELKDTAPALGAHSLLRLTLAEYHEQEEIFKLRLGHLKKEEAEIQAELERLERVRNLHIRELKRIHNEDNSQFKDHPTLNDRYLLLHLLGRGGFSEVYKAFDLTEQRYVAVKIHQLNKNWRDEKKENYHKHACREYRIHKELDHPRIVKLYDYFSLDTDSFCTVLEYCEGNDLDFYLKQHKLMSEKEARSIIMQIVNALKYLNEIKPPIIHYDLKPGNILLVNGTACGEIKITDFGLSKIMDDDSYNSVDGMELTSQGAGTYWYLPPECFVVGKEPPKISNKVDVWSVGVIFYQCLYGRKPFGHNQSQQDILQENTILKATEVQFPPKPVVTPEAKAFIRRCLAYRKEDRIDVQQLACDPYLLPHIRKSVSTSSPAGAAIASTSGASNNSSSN
Chain of P38b/MAPK11 (Q15759 whole entry): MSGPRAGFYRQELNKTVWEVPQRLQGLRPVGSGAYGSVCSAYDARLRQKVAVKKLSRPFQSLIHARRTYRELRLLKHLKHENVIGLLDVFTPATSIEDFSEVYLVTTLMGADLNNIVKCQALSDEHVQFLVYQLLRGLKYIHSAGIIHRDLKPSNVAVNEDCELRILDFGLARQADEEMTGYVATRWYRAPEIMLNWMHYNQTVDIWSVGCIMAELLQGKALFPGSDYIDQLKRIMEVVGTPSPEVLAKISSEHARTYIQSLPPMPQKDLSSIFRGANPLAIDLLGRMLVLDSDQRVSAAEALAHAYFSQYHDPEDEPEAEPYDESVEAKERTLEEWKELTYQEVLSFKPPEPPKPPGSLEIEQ
Chain of PKN2/PRK2 (Q16513 whole entry): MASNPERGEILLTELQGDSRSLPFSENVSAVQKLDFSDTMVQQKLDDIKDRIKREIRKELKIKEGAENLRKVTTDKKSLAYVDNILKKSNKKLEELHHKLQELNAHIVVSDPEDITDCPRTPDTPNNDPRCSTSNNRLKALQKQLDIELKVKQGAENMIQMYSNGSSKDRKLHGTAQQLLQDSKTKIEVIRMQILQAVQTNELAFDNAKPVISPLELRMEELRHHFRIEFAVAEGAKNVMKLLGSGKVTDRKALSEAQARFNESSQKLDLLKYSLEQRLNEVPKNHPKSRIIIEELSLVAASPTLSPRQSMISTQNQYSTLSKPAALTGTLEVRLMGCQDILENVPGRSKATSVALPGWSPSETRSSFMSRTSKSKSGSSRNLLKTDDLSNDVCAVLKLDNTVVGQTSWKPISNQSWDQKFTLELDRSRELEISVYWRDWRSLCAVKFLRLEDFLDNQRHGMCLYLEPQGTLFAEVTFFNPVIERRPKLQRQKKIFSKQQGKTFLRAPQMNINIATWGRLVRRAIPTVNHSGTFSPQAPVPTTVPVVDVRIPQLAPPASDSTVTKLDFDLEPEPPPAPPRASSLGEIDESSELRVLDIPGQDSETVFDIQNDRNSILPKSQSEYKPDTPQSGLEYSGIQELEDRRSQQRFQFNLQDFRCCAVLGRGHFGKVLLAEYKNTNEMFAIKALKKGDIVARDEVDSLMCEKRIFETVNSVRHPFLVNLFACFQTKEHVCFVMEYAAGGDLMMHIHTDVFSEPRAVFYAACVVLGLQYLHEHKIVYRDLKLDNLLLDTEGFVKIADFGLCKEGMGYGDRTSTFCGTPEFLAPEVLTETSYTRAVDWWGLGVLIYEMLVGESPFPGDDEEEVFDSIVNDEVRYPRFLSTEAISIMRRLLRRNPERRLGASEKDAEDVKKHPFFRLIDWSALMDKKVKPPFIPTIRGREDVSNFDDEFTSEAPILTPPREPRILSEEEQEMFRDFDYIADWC

SMILES	% enzyme activity at 1 μM [1]	% enzyme activity [2]	% enzyme activity [3]	% enzyme activity [4]	% enzyme activity [5]	% enzyme activity [6]	% enzyme activity [7]	% enzyme activity [8]	remaining activity at 1 µM [9]	remaining activity at 1 µM [10]	remaining activity at 1 µM [11]	remaining activity at 1 µM [12]	remaining activity at 1 µM [13]	remaining activity at 1 µM [14]	remaining activity at 1 µM [15]	remaining activity at 1 µM [16]	remaining activity at 1 µM [17]	remaining activity at 1 µM [18]	remaining activity at 1 µM [19]
COc1cc(-c2cncc(-c3ccc(N4C[C@@H](C)N(C)[C@@H](C)C4)cc3)c2C)cc(F)c1C(N)=O [Compound 26c, 2-Fluoro-6-methoxy-4-(4-methyl-5-(4-((3R,5S)-3,4,5-trimethylpiperazin-1-yl)phenyl)pyridin-3-yl)benzamide]	41.1% and 40.5%	95.54%	94.09%	86.97%	98.99%	98.95%	95.77%	99.71%	97.1%	101%	96.8%	95.5%	107%	101%	97.6%	98.8%	96.7%	93.3%	99%
COc1cc(-c2cncc(-c3ccc(N4CCN(C)CC4)cc3)c2C)cc(F)c1C(N)=O [Compound 26a, 2-Fluoro-6-methoxy-4-(4-methyl-5-(4-(4-methylpiperazin-1-yl)phenyl)pyridin-3-yl)benzamide]	28.8%	96.96%	91.77%	82.52%	97.61%	110.44%	91.84%	98.77%	97.3%	95.3%	89.7%	92.3%	100%	94.1%	90.1%	94.9%	91.9%	96.6%	103%

Source: PMC8213057, “Targeting ALK2: An Open Science Approach to Developing Therapeutics for the Treatment of Diffuse Intrinsic Pontine Glioma” (Journal of Medicinal Chemistry, 2020)
